Measurements taken from US4086219A, “Nonapeptides and methods for their production” (Parke, Davis & Company, priority 1976, dated 1978).
Values joined by “and” are separate entries in the source; they are usually repeats but may differ in a detail not shown here. Identical values can stand only once. Square brackets hold non-standard residues; d marks the D form. Peptide text beside a SMILES is read from it. * marks the point of attachment. X1 = COc1ccc(COC(=O)*)cc1; Cbz = O=C(OCc1ccccc1)*; Boc = CC(C)(C)OC(=O)*; Bn = c1ccc(C*)cc1

Tested on: LRF-induced luteinizing hormone (LH) release
Assay: In vitro LRF antagonist test in rat anterior pituitary cell cultures
Format: cell-based
Experimental: Nonapeptides of this invention are screened for LRF antagonist activity in vitro using rat anterior pituitary cell cultures as described by Vale et al. [Endocrinology, 91, 562 (1972)]. The inhibition of LRF-induced luteinizing hormone (LH) release into the culture medium is the endpoint in this in vitro bioassay. Active peptides are then tested in vivo by the procedures of Humphrey et al. [Endocrinology, 92, 1515 (1972)]. Antagonist activity is asessed by the inhibition of LRF-induced LH release in the female rat and LRF-induced ovulation in the rabbit.

[1] = Molar Conc. 1.2 × 10^-8, LRF 3.5 × 10^-10
[2] = Molar Conc. 2 × 10^-8, LRF 3.5 × 10^-10
[3] = Molar Conc. 2 × 10^-9, LRF 3.5 × 10^-10
[4] = Molar Conc. 4 × 10^-8, LRF 3.5 × 10^-10
[5] = Molar Conc. 4 × 10^-9, LRF 3.5 × 10^-10
[6] = Molar Conc. 7 × 10^-8, LRF 3.5 × 10^-10
[7] = Molar Conc. 7 × 10^-9, LRF 3.5 × 10^-10
[8] = Molar Conc. 1 × 10^-5, LRF 5 × 10^-10, first series (LRF Control 71.56)
[9] = Molar Conc. 1 × 10^-6, LRF 5 × 10^-10, first series (LRF Control 71.56)
[10] = Molar Conc. 1 × 10^-7, LRF 5 × 10^-10, first series (LRF Control 71.56)
[11] = Molar Conc. 1 × 10^-8, LRF 5 × 10^-10, first series (LRF Control 71.56)
[12] = Molar Conc. 1 × 10^-8, LRF 5 × 10^-10, second series of the compound
[13] = Molar Conc. 1 × 10^-9, LRF 5 × 10^-10, second series of the compound
[14] = Molar Conc. 2.5 × 10^-9, LRF 5 × 10^-10, second series of the compound
[15] = Molar Conc. 5 × 10^-9, LRF 5 × 10^-10, second series of the compound
[16] = Molar Conc. 1 × 10^-9, LRF 3.5 × 10^-10
[17] = Molar Conc. 1 × 10^-10, LRF 3.5 × 10^-10
[18] = Molar Conc. 2 × 10^-10, LRF 3.5 × 10^-10
[19] = Molar Conc. 3.5 × 10^-9, LRF 3.5 × 10^-10
[20] = Molar Conc. 3.5 × 10^-10, LRF 3.5 × 10^-10
[21] = Molar Conc. 6 × 10^-9, LRF 3.5 × 10^-10
[22] = Molar Conc. 6 × 10^-10, LRF 3.5 × 10^-10
[23] = Molar Conc. 2.5 × 10^-10, LRF 5 × 10^-10, second series of the compound
[24] = Molar Conc. 5 × 10^-10, LRF 5 × 10^-10, second series of the compound
[25] = Molar Conc. 1 × 10^-8, LRF 3.5 × 10^-10
[26] = Molar Conc. 2.5 × 10^-8, LRF 3.5 × 10^-10
[27] = Molar Conc. 2.5 × 10^-9, LRF 3.5 × 10^-10
[28] = Molar Conc. 2.5 × 10^-10, LRF 3.5 × 10^-10
[29] = Molar Conc. 6 × 10^-8, LRF 3.5 × 10^-10

## CC(C)C[C@H](NC(=O)[C@@H](Cc1ccccc1)NC(=O)[C@H](Cc1ccc(O)cc1)NC(=O)[C@H](CO)NC(=O)[C@H](Cc1c[nH]c2ccccc12)NC(=O)[C@H](CCC(N)=O)NC(=O)OCc1ccccc1)C(=O)N[C@@H](CCCNC(=N)N)C(=O)N1CCC[C@H]1C(=O)NCC(N)=O [N^α -Benzyloxycarbonyl-L-glutaminyl-L-tryptophyl-L-seryl-L-tyrosyl-D-phenylalanyl-L-leucyl-L-arginyl-L-prolyl-glycinamide] (Cbz-QWSY[dF]LRPG-NH2)
[1]
  % LH Release Inhibition: 71%
  LH Value: 13.47 ng/mL
[2]
  % LH Release Inhibition: 90%
  LH Value: 10.07 ng/mL
[3]
  % LH Release Inhibition: 21%
  LH Value: 22.43 ng/mL
[4]
  % LH Release Inhibition: 91%
  LH Value: 9.79 ng/mL
[5]
  % LH Release Inhibition: 30%
  LH Value: 20.76 ng/mL
[6]
  % LH Release Inhibition: 93%
  LH Value: 9.49 ng/mL
[7]
  % LH Release Inhibition: 42%
  LH Value: 18.60 ng/mL

## CC[C@H](C)[C@H](NC(=O)OCc1ccccc1)C(=O)N[C@@H](Cc1c[nH]c2ccccc12)C(=O)N[C@@H](CO)C(=O)N[C@@H](Cc1ccc(O)cc1)C(=O)N[C@H](Cc1c[nH]c2ccccc12)C(=O)N[C@@H](CC(C)C)C(=O)N[C@@H](CCCNC(=N)N)C(=O)N1CCC[C@H]1C(=O)NCC(N)=O [N^α -Benzyloxycarbonyl-L-isoleucyl-L-tryptophyl-L-seryl-L-tyrosyl-D-tryptophyl-L-leucyl-L-arginyl-L-prolyl-glycinamide] (Cbz-IWSY[dW]LRPG-NH2)
[8]
  % LH Release Inhibition: 96%
  LH Value: 20.69 ng/mL
[9]
  % LH Release Inhibition: 96%
  LH Value: 20.24 ng/mL
[10]
  % LH Release Inhibition: 96%
  LH Value: 20.50 ng/mL
[11]
  % LH Release Inhibition: 95%
  LH Value: 21.04 ng/mL
[12]
  % LH Release Inhibition: 98%
  LH Value: 14.00 ng/mL
[13]
  % LH Release Inhibition: 41%
  LH Value: 36.46 ng/mL
[14]
  % LH Release Inhibition: 70%
  LH Value: 24.96 ng/mL
[15]
  % LH Release Inhibition: 87%
  LH Value: 18.49 ng/mL

## CC(C)C[C@H](NC(=O)[C@@H](Cc1ccccc1)NC(=O)[C@H](Cc1ccc(O)cc1)NC(=O)[C@H](CO)NC(=O)[C@H](Cc1c[nH]c2ccccc12)NC(=O)[C@H](COCc1ccccc1)NC(=O)OCc1ccccc1)C(=O)N[C@@H](CCCNC(=N)N)C(=O)N1CCC[C@H]1C(=O)NCC(N)=O.Cl [N^α -Benzyloxycarbonyl-O-benzyl-L-seryl-L-tryptophyl-L-seryl-L-tyrosyl-D-phenylalanyl-L-leucyl-L-arginyl-L-prolyl-glycinamide hydrochloride] (Cbz-S(Bn)WSY[dF]LRPG-NH2)
[16]
  % LH Release Inhibition: 56%
  LH Value: 17.85 ng/mL
[17]
  % LH Release Inhibition: 0%
  LH Value: 34.50 ng/mL
[3]
  % LH Release Inhibition: 88%
  LH Value: 9.84 ng/mL
[18]
  % LH Release Inhibition: 14%
  LH Value: 28.47 ng/mL
[19]
  % LH Release Inhibition: 99%
  LH Value: 6.96 ng/mL
[20]
  % LH Release Inhibition: 36%
  LH Value: 23.09 ng/mL
[21]
  % LH Release Inhibition: 109%
  LH Value: 4.59 ng/mL
[22]
  % LH Release Inhibition: 52%
  LH Value: 18.89 ng/mL

## COc1ccc(COC(=O)N[C@@H](COCc2ccccc2)C(=O)N[C@@H](Cc2c[nH]c3ccccc23)C(=O)N[C@@H](CO)C(=O)N[C@@H](Cc2ccc(O)cc2)C(=O)N[C@H](Cc2ccccc2)C(=O)N[C@@H](CC(C)C)C(=O)N[C@@H](CCCNC(=N)N)C(=O)N2CCC[C@H]2C(=O)NCC(N)=O)cc1.Cl [N^α -p-Methoxybenzyloxycarbonyl-O-benzyl-L-seryl-L-tryptophyl-L-seryl-L-tyrosyl-D-phenylalanyl-L-leucyl-L-arginyl-L-prolyl-glycinamide hydrochloride] (X1-S(Bn)WSY[dF]LRPG-NH2)
[10]
  % LH Release Inhibition: 99%
  LH Value: 18.59 ng/mL
[11]
  % LH Release Inhibition: 105%
  LH Value: 15.95 ng/mL
[12]
  % LH Release Inhibition: 88%
  LH Value: 16.01 ng/mL
[13]
  % LH Release Inhibition: 41%
  LH Value: 32.94 ng/mL
[23]
  % LH Release Inhibition: 35%
  LH Value: 34.87 ng/mL
[24]
  % LH Release Inhibition: 52%
  LH Value: 28.95 ng/mL

## CC(C)C[C@H](NC(=O)[C@@H](Cc1c[nH]c2ccccc12)NC(=O)[C@H](Cc1ccc(O)cc1)NC(=O)[C@H](CO)NC(=O)[C@H](Cc1c[nH]c2ccccc12)NC(=O)[C@H](COCc1ccccc1)NC(=O)OC(C)(C)C)C(=O)N[C@@H](CCCNC(=N)N)C(=O)N1CCC[C@H]1C(=O)NCC(N)=O [N^α -t-Butoxycarbonyl-O-benzyl-L-seryl-L-tryptophyl-L-seryl-L-tyrosyl-D-tryptophyl-L-leucyl-L-arginyl-L-prolyl-glycinamide] (Boc-S(Bn)WSY[dW]LRPG-NH2)
[25]
  % LH Release Inhibition: 104%
  LH Value: 8.96 ng/mL
[16]
  % LH Release Inhibition: 64%
  LH Value: 21.44 ng/mL
[26]
  % LH Release Inhibition: 104%
  LH Value: 8.95 ng/mL
[27]
  % LH Release Inhibition: 72%
  LH Value: 18.85 ng/mL
[28]
  % LH Release Inhibition: 39%
  LH Value: 29.05 ng/mL
[29]
  % LH Release Inhibition: 108%
  LH Value: 7.80 ng/mL
[21]
  % LH Release Inhibition: 99%
  LH Value: 10.64 ng/mL
[22]
  % LH Release Inhibition: 50%
  LH Value: 25.53 ng/mL

## LRF: luteinizing hormone releasing factor, also called luteinizing hormone releasing hormone (LH-RH); stimulates secretion of luteinizing hormone from the anterior pituitary (QHWSYGLRPG; Gonadoliberin-1; UniProt P01148 24-33, looked up) [reference compound]
LRF alone, Molar Conc. 3.5 × 10^-10 (control of each series)
  LH Value: 26.23 ng/mL and 40.92 ng/mL and 32.11 ng/mL
LRF alone, Molar Conc. 5 × 10^-10 (control of each series)
  LH Value: 71.56 ng/mL and 47.31 ng/mL and 52.80 ng/mL
